Laboratory results as given in US20150038415A1, “PROCESS FOR THE MANUFACTURING OF A DRUG DELIVERY SYSTEM BASED ON A POLYMER COMPRISING A DISPERSED BIOACTIVE AGENT” (DSM IP Assets B.V., priority 2011, published 2015).
“Also recorded” adds a separate entry of the source.

Tested on: Nb2 (rat lymphoma) cells
Test: Bioactivity of released rHGH by Nb2 cell proliferation assay
Format: cell-based
Description: Bioactivity of rHGH present in release samples was assessed by measuring its influence on the proliferation of Nb2 (rat lymphoma) cells.^1 1 Bozzola, M. et. al. Evaluation of growth hormone bioactivity using the Nb2 cell bioassay in children with growth disorders. J. Endocrinol Invest.1998, 21, 765-770
The method used is described below:^2 2 Tanaka. T. et. al. A new sensitive and specific bioassay for lactogenic hormones: measurement of prolactin and growth hormone in human serum. J. Clin. Endocrinol. Metab.1980, 51, 1058-1063 […]
Cells were then counted with a Guava Easycyte (Millipore) capillary cytometer using Viacount reagent (Millipore) to stain cells, according to the recommendations of the manufacturer. […]
Samples originating from the release experiments were diluted in incubation medium to reach an expected (according to HPLC quantification) concentration of rHGH between 80 and 280 pg/mL(concentration range in which growth of Nb2 cells is rHGH concentration-dependent). […]
After incubation, cells were stained with 50 uL Viacount reagent and viable cells were counted by capillary cytometry.
Bioactivity of rHGH released from the fibers was measured through use of the cell-proliferation assay described above. Release samples were introduced to the cell culture medium and the effect of rHGH on cell proliferation was measured via cell counting with capillary cytometry.

## rHGH: lyophilized powder of recombinant human growth hormone, dispersed in PEA-III-Ac-Bz film cut into fibers
rHGH released from PEA-III-Ac-Bz fibers into release medium (PBS pH 7.4 with BSA and penicillin) at 37° C., Nb2 cells incubated 72 hours
  Bioactivity of rHGH released from the fibers (cell proliferation assay): retained; also recorded: bioactive; also recorded: retains its bioactivity
Release samples taken at 1 h, 3 h, 6 h, 24 h & 48 h from PEA-III-Ac-Bz fibers with approximately 1-2 wt % rHGH
  Cell response to release samples (cell counting with capillary cytometry): positive cell response
